Data set [1] in a line: detection of SH045 metabolites in MLM, HLM and mouse urine by LC-MS/MS. The class given is in vitro ADME, mouse and human. The following applies: metabolite of SH045 detected in MLM, HLM (NADPH, UDPGA) and/or mouse urine after 20 mg/kg BW i.v. As for the experimental part: To explore metabolites of SH045 formed by microsomes, DPBS, alamethicin (25 µg/mL) and MLM or HLM (1.0 mg/mL) were pre-incubated, further incubated with SH045 MgCl2, NADPH and UDPGA, terminated, and processed for LC-MS/MS analysis as described. Positive controls with testosterone and 4-nitrophenol and negative controls were analyzed too (Supplementary Materials SM7).
Larixyl-N-methylcarbamate ((1S,4S,4aR,8aS)-4-((S)-3-hydroxy-3-methylpent-4-en-1-yl)-4a,8,8-trimethyl-3-methylenedeca-hydro-naphthalen-1-yl methylcarbamate, SH045, TRPC6 inhibitor) was synthesized as described by Häfner et al. [1]. (+)-Larixol (internal standard, IS) was isolated from Larix decidua turpentine [2]. Kolliphor® EL was obtained from Caelo (Hilden, Germany). […]
SM2 Quantification of SH045 by HPLC and tandem mass spectrometric methods (LC-MS/MS) In brief, chromatographic separation was achieved using a Zorbax Eclipse XDB-C8 column (100 × 3.0 mm, 3.5 μm 80 Å, Agilent Technologies) with linear gradient elution using water and ACN, each with 0.1 % formic acid as additive, during a total run time of 20 min. For quantification (+)-larixol was used as IS. […] Freshly prepared calibration samples for SH045 in plasma and tissue comprised eight concentration levels analyzed in duplicates (2, 5, 10, 100, 200, 800, 1200 and 1600 ng/mL). […]

Another data set relates to TRPC6. The following applies: Ca^2+ influx assays; cited from earlier work.
In data set [2] the test system is FSGS-related TRPC6 channel mutants, including M132T and R175Q. Also noted: method as in PMID 28800680. As to conditions: including M132T and R175Q variants; cited from earlier work.

For the compound `C=C[C@](C)(CC[C@H]1C(=C)C[C@H](OC(=O)NC)[C@H]2C(C)(C)CCC[C@]12C)O[C@@H]1O[C@H](C(=O)O)[C@@H](O)[C@H](O)[C@H]1O` [M8a], in data set [1], the Occurrence entry was “MLM, HLM”.
What is called IC50 is the concentration that inhibits the measured activity by half. As to `C=CC(C)(O)CCC1C(=C)CC(OC(C)=O)C2C(C)(C)CCCC12C` (centres unmarked) [larixyl monoacetate], the concentration for half-maximal inhibition (IC50) with TRPC6 is around 500 nM.
Take `CC[C@@](C)(O)CC[C@H]1C(C)C[C@H](OC(=O)NC)[C@H]2C(C)(C)CCC[C@]12C` (some centres unmarked) [M2a]: the Occurrence result in data set [1] was “MLM, HLM”.
Turning to `C=CC(C)(O)CCC1C(=C)CC(OC(N)=O)C2C(C)(C)CCCC12C` (centres unmarked) [larixyl-6-carbamate], the “inhibition of FSGS-related TRPC6 channel mutants” value in data set [2] is given as “strong inhibitor”. Moreover, the half-maximal inhibitory concentration (IC50) in the data set on TRPC6 was around 500 nM.

(Values after publication PMC8998618, “A Pharmacokinetic and Metabolism Study of the TRPC6 Inhibitor SH045 in Mice by LC-MS/MS” (International Journal of Molecular Sciences, 2022).)
